Measured values as given in patent US10000473B2, “Indazole derivatives useful as glucagon receptor antagonists” (Janssen Pharmaceutica NV, priority 2016, dated 2018).
Several values for one entry are separate records, joined by “and”; a condition that tells them apart may be missing. Identical values can stand only once.

Target: T1, human GCGR (Homo sapiens, UniProt P47871)
T1 construct: expressed in transfected cells; host or cells: HEK293 (hGluc-1HEK), pcDNA3.1, G418 selection
Assay: Cellular functional assay, cAMP readout (glucagon-stimulated cAMP, LANCE TR-FRET)
Format: cell-based
Settings: HEK293 cells stably expressing full-length human GCGR; glucagon 100 pM; IC50 converted to Ki; read-out: Inhibition of cAMP Ki
Protocol: IC50 Values in Cellular Functional Assays: cAMP Readout
Full-length human GCGR (Accession Number: NM000160) subcloned into pcDNA3.1 was stably transfected into HEK293 cells (hGluc-1HEK) and maintained under G418 selection (500 μg/mL). Cell cultures were maintained in DMEM/F12 media supplemented with 10% FBS and 1% GlutaMax™ Supplement (Available from ThermoFisher Scientific, catalog #35050061). Glucagon stimulated cAMP was quantified using LANCE technology as per manufacturer instructions. On the day of the experiment, spent media was removed and cells were washed with Hank's Buffered Saline solution (HBSS), and cells harvested with non-enzymatic cell dissociation solution, then washed once with HBSS. Cells were re-suspended in stimulation buffer at a concentration of 0.83×10^6 cells/ml and cAMP detection antibody was added. 6 μl/well of this solution was then dispensed in a 384 well plate (cell density 5000 cells/well). Test compound was serially diluted in DMSO and 50 nl were dispensed on top of the cell solution and allowed to incubate for 30 minutes. 6 μl of a 2× glucagon solution (final concentration in assay 100 pM) was then added and the reaction was terminated after 5 minutes with the addition of detection mix. The resulting mixture was incubated, protected from light for 1.5 h. cAMP levels were quantified by TR-FRET in an EnVision instrument against a known standard. IC50's were generated by using a non-linear regression macro driven in Excel and converted to Ki values.

T1 sequence (P47871 26-477): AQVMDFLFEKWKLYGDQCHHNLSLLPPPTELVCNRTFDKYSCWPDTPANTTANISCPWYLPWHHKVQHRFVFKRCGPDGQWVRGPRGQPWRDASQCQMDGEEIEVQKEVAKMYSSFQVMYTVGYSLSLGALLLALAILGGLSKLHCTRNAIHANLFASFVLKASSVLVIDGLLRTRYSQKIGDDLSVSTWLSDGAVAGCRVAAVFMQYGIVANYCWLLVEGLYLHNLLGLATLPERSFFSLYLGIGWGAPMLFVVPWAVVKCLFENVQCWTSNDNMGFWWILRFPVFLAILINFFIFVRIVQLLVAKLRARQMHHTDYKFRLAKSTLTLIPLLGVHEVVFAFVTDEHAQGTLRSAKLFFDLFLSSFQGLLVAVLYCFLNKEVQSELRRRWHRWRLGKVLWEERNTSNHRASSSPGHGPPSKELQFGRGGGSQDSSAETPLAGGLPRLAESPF

Ki | SMILES
25 nM | Cc1cc(Cl)ccc1-c1ccc2nn(C(CC(C)C)c3ccc(C(=O)NCCC(=O)O)cc3)cc2c1C (stereo not shown) [Compound #20, 3-(4-(1-(5-(4-Chloro-2-methylphenyl)-4-methyl-2H-indazol-2-yl)-3-methylbutyl)benzamido)propanoic acid]
1850 nM | COc1c(-c2ccc(C(F)(F)F)cc2C)ccc2c1cnn2[C@H](CC(C)C)c1ccc(C(=O)NCCC(=O)O)cc1 [compound 145, (R)-3-(4-(1-(4-Methoxy-5-(2-methyl-4-(trifluoromethyl)phenyl)-1H-indazol-1-yl)-3-methylbutyl)benzamido)propanoic acid]
1270 nM | CC(C)C[C@H](c1ccc(C(=O)NCCC(=O)O)cc1)n1ncc2cc(-c3ccc(C(F)(F)F)cc3Cl)ccc21 [Compound #85, 3-[[4-[(1R)-1-[5-[2-Chloro-4-(trifluoromethyl)phenyl]indazol-1-yl]-3-methyl-butyl]benzoyl]amino]propanoic acid]
95 nM | CC(C)(C)CC(c1ccc(C(=O)NCCC(=O)O)cc1)n1ncc2cc(-c3ccc(C(F)(F)F)cc3)ccc21 (stereo not shown) [compound 231]
60 nM | Cc1c(-c2ccc(C(F)(F)F)cc2Cl)ccc2c1cnn2C(CC(C)C)c1ccc(C(=O)NCCC(=O)O)nc1 (stereo not shown) [Compound #198, 3-(5-(1-(5-(2-Chloro-4-(trifluoromethyl)phenyl)-4-methyl-1H-indazol-1-yl)-3-methylbutyl)picolinamido)propanoic acid]
145 nM | COc1c(-c2ccc(Cl)cc2C)ccc2c1cnn2C(CC(C)C)c1ccc(C(=O)NCCC(=O)O)cc1 (stereo not shown) [Compound #99, 3-(4-(1-(5-(4-Chloro-2-methylphenyl)-4-methoxy-1H-indazol-1-yl)-3-methylbutyl)benzamido)propanoic acid]
190 nM | CC(C)CC(c1ccc(C(=O)NCCC(=O)O)cc1)n1ncc2cc(-c3ccc4ccccc4c3)ccc21 (stereo not shown) [compound 71]
62 nM and 130 nM | CC(C)CC(c1ccc(C(=O)NCCC(=O)O)cc1)n1ncc2cc(-c3ccc(C(C)(C)C)cc3)ccc21 (single isomer, unassigned) [Compound #37]
92 nM | CC(C)CC(c1ccc(C(=O)NCCC(=O)O)nc1)n1cc2cc(-c3cc4ccccc4s3)ccc2n1 (stereo not shown) [compound 96]
210 nM | Cc1cc(Cl)ccc1-c1ccc2c(cnn2C(CC(C)C)c2ccc(C(=O)NCCC(=O)O)cc2)c1 (stereo not shown) [Compound #39, 3-(4-(1-(5-(4-Chloro-2-methylphenyl)-1H-indazol-1-yl)-3-methylbutyl)benzamido)propanoic acid]
44 nM | Cc1cc(C(F)(F)F)ccc1-c1cc2cn(C(CC(C)C)c3ccc(C(=O)NCCC(=O)O)cc3)nc2cc1Cl (stereo not shown) [Compound #30, 3-[[4-[1-[6-Chloro-5-[2-methyl-4-(trifluoromethyl)phenyl]indazol-2-yl]-3-methyl-butyl]benzoyl]amino]propanoic acid]
271 nM | Cc1cc(Cl)ccc1-c1ccc2nn(C(CC(C)C)c3ccc(C(=O)NCCC(=O)O)nc3)cc2c1 (stereo not shown) [Compound #252, 3-(5-(1-(5-(4-Chloro-2-methylphenyl)-2H-indazol-2-yl)-3-methylbutyl)picolinamido)propanoic acid]
37 nM | COc1c(-c2ccc(Cl)cc2C)ccc2nn(C(CC(C)C)c3ccc(C(=O)NCCC(=O)O)cc3)cc12 (stereo not shown) [Compound #64, 3-(4-(1-(5-(4-Chloro-2-methylphenyl)-4-methoxy-2H-indazol-2-yl)-3-methylbutyl)benzamido)propanoic acid]
230 nM | COc1ccc2sc(-c3ccc4c(cnn4C(CC(C)C)c4ccc(C(=O)NCCC(=O)O)cc4)c3)cc2c1 (stereo not shown) [compound 132]
750 nM | CC(C)CC(c1ccc(C(=O)NCCC(=O)O)cc1)n1ncc2cc(-c3ccc4cnn(C)c4c3)ccc21 (stereo not shown) [compound 116]
245 nM | CCCCCC(c1ccc(C(=O)NCCC(=O)O)cc1)n1cc2cc(-c3ccc(C(C)(C)C)cc3)ccc2n1 (stereo not shown) [compound 170]

Ki | SMILES
270 nM | O=C(O)CCNC(=O)c1ccc(C(CCC(F)(F)F)n2ncc3cc(-c4ccc(C(F)(F)F)cc4Cl)ccc32)cc1 (stereo not shown) [Compound #167, 3-[[4-[1-[5-[2-Chloro-4-(trifluoromethyl)phenyl]indazol-1-yl]-4,4,4-trifluorobutyl]benzoyl]amino]propanoic acid]
365 nM | Cc1cc(Cl)ccc1-c1ccc2c(cnn2C(CCC2CCCCC2)c2ccc(C(=O)NCCC(=O)O)nc2)c1 (stereo not shown) [compound 210]
65 nM | Cc1cc(C(F)(F)F)ccc1-c1ccc2c(cnn2C(CC(C)C)c2ccc(C(=O)NCCC(=O)O)nc2)c1C (stereo not shown) [Compound #258, 3-(5-(3-Methyl-1-(4-methyl-5-(2-methyl-4-(trifluoromethyl)phenyl)-1H-indazol-1-yl)butyl)picolinamido)propanoic acid]
750 nM | CC(C)CC(c1ccc(C(=O)NCCC(=O)O)cc1)n1cc2cc(-c3ccsc3)ccc2n1 (stereo not shown) [compound 51]
42 nM | Cc1c(-c2ccc(C(F)(F)F)cc2Cl)ccc2c1cnn2[C@@H](CC(C)C)c1ccc(C(=O)NCCC(=O)O)cc1 [Compound #241, (S)-3-(4-(1-(5-(2-Chloro-4-(trifluoromethyl)phenyl)-4-methyl-1H-indazol-1-yl)-3-methylbutyl)benzamido)propanoic acid]
650 nM | CC(C)CC(c1ccc(C(=O)NCCC(=O)O)nc1)n1ncc2cc(-c3ccc(OC(F)(F)F)cc3)ccc21 (stereo not shown) [Compound #114, 3-(5-(3-Methyl-1-(5-(4-(trifluoromethoxy)phenyl)-1H-indazol-1-yl)butyl)picolinamido)propanoic acid]
600 nM | CC(C)CC(c1ccc(C(=O)NCCC(=O)O)cc1)n1ncc2cc(-c3ccc(F)cc3)ccc21 (stereo not shown) [Compound #5]
42 nM | Cc1cc(Cl)ccc1-c1ccc2nn(C(CC3CCCCC3)c3ccc(C(=O)NCCC(=O)O)nc3)cc2c1 (stereo not shown) [compound 249]
26 nM | Cc1cc(Cl)ccc1-c1ccc2nn(C(CC(C)(C)C)c3ccc(C(=O)NCCC(=O)O)nc3)cc2c1 (stereo not shown) [compound 257]
24 nM | COc1c(-c2ccc(C(F)(F)F)cc2C)ccc2nn(C(CC(C)C)c3ccc(C(=O)NCCC(=O)O)cc3)cc12 (stereo not shown) [Compound #233, 3-(4-(1-(4-Methoxy-5-(2-methyl-4-(trifluoromethyl)phenyl)-2H-indazol-2-yl)-3-methylbutyl)benz-amido)propanoic acid]
105 nM | Cc1cc(C(F)(F)F)ccc1-c1cc2cnn(C(CC(C)C)c3ccc(C(=O)NCCC(=O)O)cc3)c2cc1Cl (stereo not shown) [Compound #261, 3-[[4-[1-[6-Chloro-5-[2-methyl-4-(trifluoromethyl)phenyl]indazol-1-yl]-3-methyl-butyl]benzoyl]amino]propanoic acid]
336 nM | CC(C)CC(c1ccc(C(=O)NCCC(=O)O)nc1)n1cc2cc(-c3ccc(Cl)cc3Cl)ccc2n1 (stereo not shown) [Compound #83, 3-(5-(1-(5-(2,4-Dichlorophenyl)-2H-indazol-2-yl)-3-methylbutyl)picolinamido)propanoic acid]
550 nM | O=C(O)CCNC(=O)c1ccc(C(CC2CCCCC2)n2ncc3cc(-c4ccc(C(F)(F)F)cc4)ccc32)cn1 (stereo not shown) [compound 255]
650 nM | CCCC(c1ccc(C(=O)NCCC(=O)O)cc1)n1ncc2cc(-c3ccc(C(C)(C)C)cc3)ccc21 (stereo not shown) [Compound #56, 3-(4-(1-(5-(4-(tert-Butyl)phenyl)-1H-indazol-1-yl)butyl)benzamido)propanoic acid]
47 nM and 49 nM | Cc1cc(C(F)(F)F)ccc1-c1ccc2nn(C(CC(C)C)c3ccc(C(=O)NCCC(=O)O)nc3)cc2c1 (stereo not shown) [Compound #19]
